{
  "source": "patent US12539335B2",
  "about": "“Tricyclic polypeptide conjugated drug and use thereof” (CONJUSTAR (ZHUHAI) BIOLOGICS CO., LTD., priority 2021, dated 2026)",
  "key": {"MDA-MB-468 cells": {"system": "MDA-MB-468 cells", "experiment": "In vitro anti-proliferative activity, CellTiter-Glo, MDA-MB-468", "format": "cell-based, Human", "settings": "MDA-MB-468, 72 h", "experimental": "Test Example 2: In Vitro Anti-Proliferative Activity of the Compounds of the Present Invention on Nci-H292 and Mda-Mb-468 Cells\nTo investigate the effect of the compounds of the present invention on inhibiting cell proliferation by detecting the effect of the compounds on cell activity in vitro in tumor cell lines MDA-MB-468 and NCI-H292.\nThe tumor cell lines were cultured in a 37° C., no CO2 incubator and a 37° C., 5% CO2 incubator according to the culture conditions shown in Table 8, respectively. The cells were periodically passaged, and cells in a logarithmic growth phase were taken for plating.\nCells in a logarithmic growth phase were harvested and centrifuged at 1000 rpm for 3 min at room temperature. The supernatant was discarded, and the cells were resuspended in 5 mL of a culture medium. Then, 20 μL of the cell suspension was pipetted and mixed with trypan blue at 1:1 for staining for 3 min to detect cell viability and to count viable cells. The cell density was adjusted to 3000 cells/well. Then, 90 μL of the cell suspension was added to each culture plate well, and a cell-free culture medium was added to blank control wells. The culture plate was incubated overnight in a 37° C., no CO2, and 100% relative humidity incubator and a 37° C., 5% CO2, and 100% relative humidity incubator, respectively.\nPreparation of a 400× compound stock plate: The compound to be tested was gradient diluted with DMSO from the highest to the lowest concentration.\nPreparation of a 10× compound working solution: 78 μL of a cell culture medium was added to a V-bottomed 96-well plate, and 2 μL of the compound solution of each concentration was pipetted from the 400× compound stock plate into the cell culture medium in the 96-well plate. Then, 2 μL of DMSO was added to vehicle control and blank control. […]\nThe detection was performed according to the instructions of the Promega CellTiter-Glo Luminescent Cell Viability Assay kit (Promega-G7573). The luminescence signal was detected on the En Vision® Multi-mode Plate Reader (En Vision 2104-10). […]"}, "[1]": {"experiment": "Metabolic stability in hepatocytes, CD-1 mice", "format": "in vitro ADME", "settings": "mouse, hepatocytes (cryopreserved, suspension), CD-1 mice hepatocytes, 0.5×10^6 cells/mL", "experimental": "Test Example 7: Metabolic Stability of the Compounds of the Present Invention in Hepatocytes from Mice, Rats, Cynomolgus Macaques, and Humans\nTo investigate the metabolic stability of the compounds of the present invention in hepatocytes from mice, rats, Cynomolgus macaques, and humans.\nIncubations were performed in 96-well plates using an external extraction method. Several 96-well sample precipitation plates, designated T0, T15, T30, T60, T90, TO-MC, T90-MC, and blank matrix, were prepared, respectively. The recovery culture medium and incubation culture medium were removed in advance and placed in a 37° C. water bath for preheating. […]\nAt the end of the incubation at the corresponding time point, the incubation plates were removed, from which 25 μL of a compound mixture with the cells and a control compound mixture with the cells were removed and added to sample plates containing 125 μL of stop buffer, respectively. […] All samples were mixed uniformly and then analyzed by the LC-MS/MS method.\nThe concentration of the compound to be tested and the concentration of the control in the sample were semi-quantitatively determined by the liquid chromatography-tandem mass spectrometry (LC-MS/MS) method without a standard curve and quality control sample. […]"}},
  "note": "Structures can show the parent of a compound that is named as a salt. Starred links: 1 amine or outer side, 2 acyl side, 3 side chain; linkers in the order of their positions; H or OH if unused. Positions of bridges follow the written chain, without caps; N, C: chain ends. Non-standard residues stand in square brackets, D forms with d. Residues, ends and D or L forms follow the SMILES beside them. Chains are numbered I, II in the order given. *: point of attachment. TATA = O=C(CC[*:1])N1CN(C(=O)CC[*:2])CN(C(=O)CC[*:3])C1; Dolaproine = CO[C@@H]([C@@H]1CCCN1)[C@@H](C)C(=O)O; Dil = CC[C@H](C)[C@H](NC)[C@@H](CC(=O)O)OC; 1Nal = N[C@@H](Cc1cccc2ccccc12)C(=O)O; X2 = O=C(CCCC(=O)[*:2])NCCC(=O)[*:1]; PABC = O=C(OCc1ccc(N[*:1])cc1)[*:2]; X1 = C[C@@H](N*)[C@@H](O)c1ccccc1; Hyp = O=C(O)[C@@H]1C[C@@H](O)CN1; hArg = N=C(N)NCCCC[C@H](N)C(=O)O; Cit = NC(=O)NCCC[C@H](N)C(=O)O; Pen = CC(C)(S)[C@H](N)C(=O)O; NMeV = CN[C@H](C(=O)O)C(C)C; Sar = CNCC(=O)O",
  "data": [
    {"smiles": "CC[C@H](C)[C@@H]([C@@H](CC(=O)N1CCC[C@H]1[C@H](OC)[C@@H](C)C(=O)N[C@H](C)[C@@H](O)c1ccccc1)OC)N(C)C(=O)[C@@H](NC(=O)[C@H](C(C)C)N(C)C(=O)OCc1ccc(NC(=O)[C@H](CCCNC(N)=O)NC(=O)[C@@H](NC(=O)CCCC(=O)NCCC(=O)N(C)CC(=O)N(C)CC(=O)N(C)CC(=O)N(C)CC(=O)N(C)CC(=O)N(C)CC(=O)N(C)CC(=O)N(C)CC(=O)N(C)CC(=O)N(C)CC(=O)N[C@H]2CCCCNC(=O)C[C@@H](C(=O)N[C@H]3CSCCC(=O)N4CN5CN(C4)C(=O)CCSC(C)(C)[C@H](NC(=O)[C@@H](CC(=O)O)NC(=O)[C@H](Cc4cccc6ccccc46)NC(=O)[C@@H]4CCCN4C3=O)C(=O)N[C@@H](CCSC)C(=O)N[C@@H](CCCCNC(=N)N)C(=O)N[C@@H](CC(=O)O)C(=O)N[C@@H](Cc3c[nH]c4ccccc34)C(=O)N[C@@H](CO)C(=O)N[C@@H]([C@@H](C)O)C(=O)N3CCC[C@H]3C(=O)N3C[C@H](O)C[C@H]3C(=O)N[C@@H](Cc3c[nH]c4ccccc34)C(=O)N[C@H](C(N)=O)CSCCC5=O)NC(=O)CN(C)C2=O)C(C)C)cc1)C(C)C", "note": "[Acetate salt of PDC_2] (I: [Sar][Sar][Sar][Sar][Sar][Sar][Sar][Sar][Sar][Sar]K[Sar]DCP[1Nal][dD][Pen]M[hArg]DWSTP[Hyp]WC-NH2 / II: V[Cit][PABC][NMeV]V[Dil][Dolaproine]-X1; lactam I:11-I:13; linker I:14-I:18-I:28 via TATA; linker I:N-II:N via X2)", "values": [
      {"measurement": "IC50", "setting": "MDA-MB-468 cells", "result": 32.3, "unit": "nM"},
      {"measurement": "Maximum inhibition rate", "setting": "MDA-MB-468 cells", "result": 86.28, "unit": "%"},
      {"measurement": "Minimum inhibition rate", "setting": "MDA-MB-468 cells", "result": "−10.28", "unit": "%"},
      {"measurement": "half-life at 1 μM", "setting": "[1]", "result": "> 3.61", "unit": "h"},
      {"measurement": "CLint scaled at 1 μM", "setting": "[1]; read-out: CLint (liver)", "result": "< 75.9", "unit": "mL/min/kg"}
    ]}
  ]
}
